Test system: Phytophthora citrophthora
Assay: Example B3: action on phytopathogenic soil fungi, growth on agar in Petri dishes
Format: cell-based
Conditions: 120 h, 30 ppm, agar medium, 22° C., 5 days, read-out: inhibition of the development of the fungus

Structure (SMILES)	inhibition at 30 ppm [%]
COc1ccc(-c2cc(Cl)ccc2C(=O)N2CCOCC2)cc1OC [Compound 208]	≥ 80
CCN(C)C(=O)c1ccc(Cl)cc1-c1ccc(OC)c(OC)c1 [Compound 209]	≥ 80
COCCN(C)C(=O)c1ccc(Cl)cc1-c1ccc(OC)c(OC)c1 [Compound 210]	≥ 80
CCN(CC)C(=O)c1ccc(Cl)cc1-c1ccc(OC)c(OC)c1 [Compound 211]	≥ 80
C=C(C)c1ccc(C(=O)N(C)CC)c(-c2ccc(OC)c(OC)c2)c1 [Compound 212]	≥ 80
C=C(C)c1ccc(C(=O)N(C)CCOC)c(-c2ccc(OC)c(OC)c2)c1 [Compound 213]	≥ 80
C=C(C)c1ccc(C(=O)N(CC)CC)c(-c2ccc(OC)c(OC)c2)c1 [Compound 214]	≥ 80
CCN(C)C(=O)c1ccc(-c2ccc(C)cc2)cc1-c1ccc(OC)c(OC)c1 [Compound 215]	≥ 80
COc1ccc(-c2cc(-c3ccc(C)cc3)ccc2C(=O)N(C)CCO)cc1OC [Compound 216]	≥ 80
COc1ccc(-c2cc(-c3ccc(C)cc3)ccc2C(=O)N(C)C)cc1OC [Compound 217]	≥ 80
COc1ccc(-c2cc(Br)ccc2C(=O)N2CCOCC2)cc1OC [Compound 222]	≥ 80
COc1ccc(-c2c(Br)cccc2C(=O)N2CCOCC2)cc1OC [Compound 223]	≥ 80
O=C(c1ccc(Br)cc1-c1ccc2c(c1)OCO2)N1CCOCC1 [Compound 224]	≥ 80
CCN(C)C(=O)c1ccc(-c2ccc(F)cc2)cc1-c1ccc2c(c1)OCO2 [Compound 228]	≥ 80
O=C(c1ccc(-c2ccc(F)cc2)cc1-c1ccc2c(c1)OCO2)N1CCOCC1 [Compound 229]	≥ 80
CCN(C)C(=O)c1ccc(-c2ccc(C)cc2)cc1-c1ccc2c(c1)OCO2 [Compound 230]	≥ 80
Cc1ccc(-c2ccc(C(=O)N3CCOCC3)c(-c3ccc4c(c3)OCO4)c2)cc1 [Compound 231]	≥ 80
COc1ccc(-c2ccc(C(=O)N3CCOCC3)c(-c3ccc(OC)c(OC)c3)c2)cc1OC [Compound 234]	≥ 80
COc1ccc(-c2cc(C=C(C)C)ccc2C(=O)N2CCOCC2)cc1OC [Compound 235]	≥ 80
C=C(C)c1ccc(C(=O)N2CCOCC2)c(-c2ccc(OC)c(OC)c2)c1 [Compound 236]	≥ 80
COc1ccc(-c2cc(-c3ccc(Cl)cc3)ccc2C(=O)N2CCOCC2)cc1OC [Compound 237]	≥ 80
COc1ccc(-c2cc(-c3ccsc3)ccc2C(=O)N2CCOCC2)cc1OC [Compound 238]	≥ 80
COc1ccc(-c2cc(-c3ccc4c(c3)OCO4)ccc2C(=O)N2CCOCC2)cc1OC [Compound 239]	≥ 80
COc1ccc(-c2nc(-c3ccccc3)ccc2C(=O)N2CCOCC2)cc1OC [Compound 301, N-[2-(3,4-dimathoxyphenyl)-6-phenylnicotinoyl]morpholine]	≥ 80
COc1ccc(-c2nc(-c3ccc(Cl)cc3)ccc2C(=O)N2CCOCC2)cc1OC [Compound 345]	≥ 80
CCN(C)C(=O)c1ccc(-c2ccc(Cl)cc2)nc1-c1ccc(OC)c(OC)c1 [Compound 347]	≥ 80

Structure (SMILES)	inhibition at 30 ppm [%]
COc1ccc(-c2nc(-c3ccc(F)cc3)ccc2C(=O)N2CCOCC2)cc1OC [Compound 349]	≥ 80
CCN(C)C(=O)c1ccc(-c2ccc(F)cc2)nc1-c1ccc(OC)c(OC)c1 [Compound 350]	≥ 80
COCCN(C)C(=O)c1ccc(-c2ccc(F)cc2)nc1-c1ccc(OC)c(OC)c1 [Compound 353]	≥ 80
COCCN(C)C(=O)c1ccc(-c2ccccc2)nc1-c1ccc(OC)c(OC)c1 [Compound 354]	≥ 80
COc1ccc(-c2nc(-c3ccc(C4CC4(Cl)Cl)cc3)ccc2C(=O)N2CCOCC2)cc1OC (centres unmarked) [Compound 355]	≥ 80
COc1ccc(-c2nc(-c3ccc(C(C)C)cc3)ccc2C(=O)N2CCOCC2)cc1OC [Compound 356]	≥ 80
C=CCN(C)C(=O)c1ccc(-c2ccccc2)nc1-c1ccc(OC)c(OC)c1 [Compound 359]	≥ 80
COc1ccc(-c2nc(-c3ccccc3)ccc2C(=O)N(C)C(C)C)cc1OC [Compound 360]	≥ 80
COc1ccc(-c2nc(-c3ccc(Cl)cc3)ccc2C(=O)N(C)CC#N)cc1OC [Compound 363]	≥ 80
CCN(CC)C(=O)c1ccc(-c2ccc(Cl)cc2)nc1-c1ccc(OC)c(OC)c1 [Compound 364]	≥ 80
CCCN(C)C(=O)c1ccc(-c2ccccc2)nc1-c1ccc(OC)c(OC)c1 [Compound 365]	≥ 80
COc1ccc(-c2nc(-c3ccc(Br)cc3)ccc2C(=O)N(C)CCOC(C)=O)cc1OC [Compound 366]	≥ 80
COc1ccc(-c2nc(-c3ccc(Cl)cc3)c(C)cc2C(=O)N2CCOCC2)cc1OC [Compound 367]	≥ 80
COc1ccc(-c2nc(-c3ccc(F)cc3)c(C)cc2C(=O)N2CCOCC2)cc1OC [Compound 368]	≥ 80
CCN(C)C(=O)c1ccc(-c2ccccc2)nc1-c1ccc(OC)c(OC)c1 [Compound 369]	≥ 80
COc1ccc(-c2nc(-c3ccccc3)ccc2C(=O)N(C)C)cc1OC [Compound 370]	≥ 80
COc1ccc(-c2nc(-c3ccc(Cl)cc3)ccc2C(=O)N2CCCC2)cc1OC [Compound 373]	≥ 80
COc1ccc(-c2nc(-c3ccc(Cl)cc3)ccc2C(=O)N2CCCCC2)cc1OC [Compound 376]	≥ 80
COc1ccc(-c2nc(-c3ccc(Cl)cc3)ccc2C(=O)N2CCC(O)CC2)cc1OC [Compound 377]	≥ 80
COc1ccc(-c2nc(-c3ccc(Cl)cc3)ccc2C(=O)N(C)Cc2ccco2)cc1OC [Compound 378]	≥ 80
COCCN(C)C(=O)c1ccc(-c2ccc(Cl)cc2)nc1-c1ccc(OC)c(OC)c1 [Compound 379]	≥ 80
COc1ccc(-c2nc(-c3ccc(Br)cc3)ccc2C(=O)N(C)CCO)cc1OC [Compound 380]	≥ 80
COc1ccc(-c2nc(-c3ccc(Cl)cc3)ccc2C(=O)N(C)CC2CCCO2)cc1OC (centres unmarked) [Compound 381]	≥ 80
COc1ccc(-c2nc(-c3ccc(C#N)cc3)ccc2C(=O)N2CCOCC2)cc1OC [Compound 382]	≥ 80
COc1ccc(-c2nc(-c3ccc(Cl)cc3)ccc2C(=O)N(C)CCO)cc1OC [Compound 383]	≥ 80
COc1ccc(-c2nc(-c3ccc(C)cc3)ccc2C(=O)N2CCOCC2)cc1OC [Compound 384]	≥ 80

Structure (SMILES)	inhibition at 30 ppm [%]
COc1ccc(-c2nc(-c3ccc(Br)cc3)ccc2C(=O)N2CCOCC2)cc1OC [Compound 385]	≥ 80
C=CCN(C)C(=O)c1ccc(-c2ccc(Cl)cc2)nc1-c1ccc(OC)c(OC)c1 [Compound 386]	≥ 80
CCN(CC)C(=O)c1ccc(-c2ccccc2)nc1-c1ccc(OC)c(OC)c1 [Compound 388]	≥ 80
COc1ccc(-c2ccc(C(=O)N3CCOCC3)c(-c3ccc(OC)c(OC)c3)n2)cc1 [Compound 389]	≥ 80
CCN(C)C(=O)c1ccc(-c2ccc(Br)cc2)nc1-c1ccc(OC)c(OC)c1 [Compound 390]	≥ 80
COc1ccc(-c2nc(-c3ccccc3C)ccc2C(=O)N2CCOCC2)cc1OC [Compound 391]	≥ 80
COc1ccc(-c2nc(-c3ccccc3Cl)ccc2C(=O)N2CCOCC2)cc1OC [Compound 392]	≥ 80
COCCN(C)C(=O)c1ccc(-c2ccc(Br)cc2)nc1-c1ccc(OC)c(OC)c1 [Compound 393]	≥ 80
COc1ccc(-c2nc(-c3ccc(Cl)cc3)ccc2C(=O)N(C)OC)cc1OC [Compound 394]	≥ 80
COc1ccc(-c2nc(-c3ccccc3)ccc2C(=O)N(C)CCO)cc1OC [Compound 395]	≥ 80
COc1ccc(-c2nc(-c3ccccc3)ccc2C(=O)N(C)CCOC(C)=O)cc1OC [Compound 396]	≥ 80
COc1ccc(-c2nc(-c3ccc(Cl)cc3)ccc2C(=O)N(C)CCOC(C)=O)cc1OC [Compound 397]	≥ 80
COc1ccc(-c2nc(-c3ccc(Cl)cc3)ncc2C(=O)N2CCOCC2)cc1OC [Compound 407, 2-(4-Chlorophenyl)-4-(3,4-dimethoxyphenyl)-5-morpholinocarbonylpyrimidine]	≥ 80
COc1ccc(-c2nc(-c3ccccc3)ncc2C(=O)N2CCOCC2)cc1OC [Compound 414]	≥ 80
CCN(C)C(=O)c1cnc(-c2ccccc2)nc1-c1ccc(OC)c(OC)c1 [Compound 415]	≥ 80
COCCN(C)C(=O)c1cnc(-c2ccccc2)nc1-c1ccc(OC)c(OC)c1 [Compound 416]	≥ 80
CCN(CC)C(=O)c1cnc(-c2ccc(Cl)c(Cl)c2)nc1-c1ccc(OC)c(OC)c1 [Compound 420]	≥ 80
COc1ccc(-c2nc(-c3cccc(C(F)(F)F)c3)ncc2C(=O)N2CCOCC2)cc1OC [Compound 425]	≥ 80
COc1ccc(-c2nc(-c3cccc(C(F)(F)F)c3)ncc2C(=O)O)cc1OC [Compound 426]	≥ 80
COc1ccc(-c2nc(-c3ccc(Br)cc3)ncc2C(=O)N2CCOCC2)cc1OC [Compound 427]	≥ 80
CCN(C)C(=O)c1cnc(-c2cccc(C(F)(F)F)c2)nc1-c1ccc(OC)c(OC)c1 [Compound 428]	≥ 80
CCN(CC)C(=O)c1cnc(-c2cccc(C(F)(F)F)c2)nc1-c1ccc(OC)c(OC)c1 [Compound 429]	≥ 80
CCN(CC)C(=O)c1cnc(-c2ccc(Br)cc2)nc1-c1ccc(OC)c(OC)c1 [Compound 430]	≥ 80
COc1ccc(-c2nc(Oc3ccc(C)cc3)ncc2C(=O)N2CCOCC2)cc1OC [Compound 433, 4-(3,4-dimethoxyphenyl)-2-(4-methylphenoxy)-5-morpholinocarbonylpyrimidine]	≥ 80
COc1ccc(-c2nc(SCc3ccccc3)ncc2C(=O)N2CCOCC2)cc1OC [Compound 434]	≥ 80

— patent publication US5475132A, “Antifungal agents based on amides containing a phenyl group” (Rhone-Poulenc Agrochimie, priority 1988, dated 1995)
